# Several values for one entry are separate records, joined by “and”; a condition that tells them apart may be missing. Equal entries are not always repeated. Inconclusive results and toxic doses are left out.
# System: BDF1 mice, P388 leukemia ip, median survival T/C
# Assay: NCI In Vivo Anticancer Drug Screen. Data for tumor model P388 Leukemia (intraperitoneal) in B6D2F1 (BDF1) mice
# Details: endpoint: median survival time, higher = longer survival
# Summary of the method: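 Compound-treated tumour-bearing mice were compared with vehicle-treated controls. Survival was recorded, and the value is the treated-group measurement divided by the control-group measurement (T/C).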
# [1] = dose: 16.0 mg/kg/injection, schedule: Q01DX009 (ip), vehicle: saline
# [2] = dose: 50.0 mg/kg/injection, schedule: Q04DX003 (ip), vehicle: saline
# [3] = dose: 100.0 mg/kg/injection, schedule: Q04DX003 (ip), vehicle: saline
# [4] = dose: 200.0 mg/kg/injection, schedule: Q04DX003 (ip), vehicle: saline
# [5] = dose: 100.0 mg/kg/injection, schedule: Q04DX003 (ip), vehicle: saline with Tween-80
# [6] = dose: 200.0 mg/kg/injection, schedule: Q04DX003 (ip), vehicle: saline with Tween-80
# [7] = dose: 200.0 mg/kg/injection, schedule: Q04DX003 (ip), vehicle: Klucel (hydroxypropylcellulose) (HPC)
# [8] = dose: 12.5 mg/kg/injection, schedule: Q01DX009 (ip), vehicle: saline
structure (smiles),measurement,setting,value
CN(C)C(=O)c1cccc(COc2ccc(N3C(N)=NC(N)=NC3(C)C)cc2Cl)c1,T/C,"dose: 4.0 mg/kg/injection, schedule: Q03HX024 (ip), vehicle: saline",100 % of control
same,T/C,"dose: 8.0 mg/kg/injection, schedule: Q03HX016 (ip), vehicle: saline",100 % of control
same,T/C,[1],90 % of control
same,T/C,"dose: 16.0 mg/kg/injection, schedule: Q01DX009 (sc), vehicle: saline",100 % of control
same,T/C,"dose: 16.0 mg/kg/injection, schedule: Q03HX016 (ip), vehicle: saline",100 % of control
same,T/C,"dose: 16.0 mg/kg/injection, schedule: Q03HX024 (ip), vehicle: saline",118 % of control
same,T/C,"dose: 32.0 mg/kg/injection, schedule: Q01DX009 (ip), vehicle: saline",118 % of control
same,T/C,"dose: 32.0 mg/kg/injection, schedule: Q01DX009 (sc), vehicle: saline",90 % of control
same,T/C,"dose: 32.0 mg/kg/injection, schedule: Q03HX016 (ip), vehicle: saline",118 % of control
same,T/C,"dose: 32.0 mg/kg/injection, schedule: Q04DX003 (ip), vehicle: saline",100 % of control
same,T/C,"dose: 64.0 mg/kg/injection, schedule: Q01DX001 (ip), vehicle: saline",100 % of control
same,T/C,"dose: 64.0 mg/kg/injection, schedule: Q01DX001 (sc), vehicle: saline",90 % of control
same,T/C,"dose: 64.0 mg/kg/injection, schedule: Q01DX009 (oral), vehicle: saline",90 % of control
same,T/C,"dose: 64.0 mg/kg/injection, schedule: Q04DX003 (ip), vehicle: saline",100 % of control
same,T/C,"dose: 64.0 mg/kg/injection, schedule: Q08DX002 (ip), vehicle: saline",100 % of control
same,T/C,"dose: 128.0 mg/kg/injection, schedule: Q01DX001 (oral), vehicle: saline",90 % of control
same,T/C,"dose: 128.0 mg/kg/injection, schedule: Q01DX001 (sc), vehicle: saline",100 % of control
same,T/C,"dose: 128.0 mg/kg/injection, schedule: Q01DX009 (oral), vehicle: saline",95 % of control
same,T/C,"dose: 256.0 mg/kg/injection, schedule: Q01DX001 (oral), vehicle: saline",95 % of control
same,T/C,"dose: 256.0 mg/kg/injection, schedule: Q01DX001 (sc), vehicle: saline",90 % of control
same,T/C,"dose: 512.0 mg/kg/injection, schedule: Q01DX001 (oral), vehicle: saline",90 % of control
same,T/C,"dose: 512.0 mg/kg/injection, schedule: Q01DX001 (sc), vehicle: saline",100 % of control
same,T/C,"dose: 1024.0 mg/kg/injection, schedule: Q01DX001 (oral), vehicle: saline",95 % of control
NNC(=O)c1ccncc1,T/C,"dose: 50.0 mg/kg/injection, schedule: Q01DX009 (ip), vehicle: saline",110 % of control
same,T/C,[2],105 % of control
same,T/C,[3],105 % of control
same,T/C,[4],100 % of control
CC(=O)Nc1ccc2ccc(Cl)nc2n1,T/C,[3],95 % of control
same,T/C,[4],100 % of control
same,T/C,"dose: 400.0 mg/kg/injection, schedule: Q04DX003 (ip), vehicle: saline",104 % of control
O=C(O)/C(Br)=C/c1ccccc1,T/C,"dose: 50.0 mg/kg/injection, schedule: Q04DX003 (ip), vehicle: saline with Tween-80",100 % of control
same,T/C,[5],109 % of control
same,T/C,[6],95 % of control
COP(=S)(NC(C)C)Oc1ccc(C)cc1[N+](=O)[O-] (stereo not drawn),T/C,"dose: 1.56 mg/kg/injection, schedule: Q01DX009 (ip), vehicle: saline with Tween-80",106 % of control
same,T/C,"dose: 3.13 mg/kg/injection, schedule: Q01DX009 (ip), vehicle: saline with Tween-80",89 % of control
same,T/C,"dose: 6.25 mg/kg/injection, schedule: Q01DX009 (ip), vehicle: saline with Tween-80",97 % of control
same,T/C,"dose: 12.5 mg/kg/injection, schedule: Q01DX009 (ip), vehicle: saline with Tween-80",100 % of control
N#CC(C#N)=Cc1cccc2ccccc12,T/C,"dose: 100.0 mg/kg/injection, schedule: Q04DX003 (ip), vehicle: Klucel (hydroxypropylcellulose) (HPC)",104 % of control
same,T/C,[7],100 % of control
same,T/C,"dose: 400.0 mg/kg/injection, schedule: Q04DX003 (ip), vehicle: Klucel (hydroxypropylcellulose) (HPC)",113 % of control
O=C(O)CCC(=O)/C=C1/Nc2ccccc2C1=O,T/C,[5],110 % of control
same,T/C,[6],120 % of control
COC12C(COC(N)=O)C3=C(C(=O)C(C)=C(N)C3=O)N1CC1C2N1C (stereo not drawn),T/C,"dose: 2.0 mg/kg/injection, schedule: Q01DX009 (ip), vehicle: saline",163 % of control
same,T/C,"dose: 2.0 mg/kg/injection, schedule: Q01DX010 (ip), vehicle: saline",175 % of control
same,T/C,"dose: 4.0 mg/kg/injection, schedule: Q01DX009 (ip), vehicle: saline",179 % of control
same,T/C,"dose: 4.0 mg/kg/injection, schedule: Q01DX010 (ip), vehicle: saline",190 % of control
same,T/C,"dose: 8.0 mg/kg/injection, schedule: Q01DX009 (ip), vehicle: saline",198 % of control
same,T/C,"dose: 8.0 mg/kg/injection, schedule: Q01DX010 (ip), vehicle: saline",240 % of control
same,T/C,[1],88 % of control
same,T/C,"dose: 16.0 mg/kg/injection, schedule: Q01DX010 (ip), vehicle: saline",110 % of control
[O-]c1c(Cl)c(Cl)c(O[P+](c2ccccc2)(c2ccccc2)c2ccccc2)c(Cl)c1Cl,T/C,"dose: 6.25 mg/kg/injection, schedule: Q01DX009 (ip), vehicle: saline",116 % of control
same,T/C,[8],122 % of control
CC(=O)NNc1ccccc1,T/C,"dose: 12.5 mg/kg/injection, schedule: Q01DX009 (ip), vehicle: Klucel (hydroxypropylcellulose) (HPC)",109 % of control
same,T/C,"dose: 25.0 mg/kg/injection, schedule: Q01DX009 (ip), vehicle: Klucel (hydroxypropylcellulose) (HPC)",109 % of control
same,T/C,"dose: 50.0 mg/kg/injection, schedule: Q01DX009 (ip), vehicle: Klucel (hydroxypropylcellulose) (HPC)",100 % of control
same,T/C,[7],117 % of control
CCOc1ccccc1CC(=O)O,T/C,[5],100 % of control
same,T/C,[6],100 % of control
same,T/C,"dose: 400.0 mg/kg/injection, schedule: Q04DX003 (ip), vehicle: saline with Tween-80",104 % of control
O=C(O)c1ccc([N+](=O)[O-])s1,T/C,"dose: 50.0 mg/kg/injection, schedule: Q01DX009 (ip), vehicle: saline with Tween-80",90 % of control
same,T/C,"dose: 100.0 mg/kg/injection, schedule: Q01DX009 (ip), vehicle: saline with Tween-80",95 % of control
same,T/C,[5],110 % of control
same,T/C,[6],100 % of control
CC1(C)N=C(N)N=C(N)N1c1ccc(OCCCOc2ccc(S(=O)(=O)F)cc2)c(Cl)c1,T/C,"dose: 0.66 mg/kg/injection, schedule: Q01DX009 (ip), vehicle: saline",108 % of control
same,T/C,"dose: 0.99 mg/kg/injection, schedule: Q01DX009 (ip), vehicle: saline",104 % of control
same,T/C,[8],165 % of control
same,T/C,"dose: 25.0 mg/kg/injection, schedule: Q01DX009 (ip), vehicle: saline",115 % of control
same,T/C,"dose: 33.0 mg/kg/injection, schedule: Q04DX003 (ip), vehicle: saline",109 % of control and 120 % of control
same,T/C,[2],114 % of control and 120 % of control
same,T/C,"dose: 75.0 mg/kg/injection, schedule: Q04DX003 (ip), vehicle: saline",114 % of control
NC(=O)CCCNC(=O)CCC[c-]1[c-][c-][c-][c-]1.[Fe].[c-]1[c-][c-][cH-][c-]1,T/C,"dose: 6.25 mg/kg/injection, schedule: Q01DX009 (ip), vehicle: other",100 % of control
same,T/C,"dose: 12.5 mg/kg/injection, schedule: Q01DX009 (ip), vehicle: other",98 % of control
same,T/C,"dose: 25.0 mg/kg/injection, schedule: Q01DX009 (ip), vehicle: other",100 % of control
same,T/C,"dose: 50.0 mg/kg/injection, schedule: Q01DX009 (ip), vehicle: other",114 % of control
same,T/C,"dose: 100.0 mg/kg/injection, schedule: Q01DX009 (ip), vehicle: other",121 % of control
NC(=O)c1c(Cl)nc(-c2cccc([N+](=O)[O-])c2)c([N+](=O)[O-])c1C(F)(F)F,T/C,"dose: 50.0 mg/kg/injection, schedule: Q01DX005 (ip), vehicle: saline with Tween-80",87 % of control
same,T/C,"dose: 100.0 mg/kg/injection, schedule: Q01DX005 (ip), vehicle: saline with Tween-80",115 % of control
same,T/C,"dose: 200.0 mg/kg/injection, schedule: Q01DX005 (ip), vehicle: saline with Tween-80",112 % of control
